In patent US12145944B2, “Imidazopyrimidines as EED inhibitors and the use thereof” (THE REGENTS OF THE UNIVERSITY OF MICHIGAN, priority 2019, dated 2024):

Legend:
[1] = system: KARPAS422 human B cell lymphoma cell; assay: Cell proliferation, KARPAS422, 7 day treatment (WST-8); assay type: cell-based; settings: Homo sapiens, KARPAS-422, 168 h, anti-proliferative IC50 class, Karpas 422 cell line, 7 day treatment; read-out: Karpas Cell line
In short: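 Read-out was WST-8 absorbance at 450 nm after 1-4 h with reagent, taken after 7-day compound treatment (serial dilutions, 37 °C, 5% CO2) of 2 000-3 000 KARPAS422 cells per well. IC50 fitted by nonlinear regression on DMSO-normalized values.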

[2] = system: Pfeiffer cell line; assay: Anti-proliferative activity, Pfeiffer cell line, 7 day treatment; assay type: cell-based; settings: Homo sapiens, 168 h; anti-proliferative IC50 class, Pfeiffer cell line, 7 day treatment; read-out: Pfeiffer Cell line
Method: “N/A” stands for “not assessed”.
To assess the effect of PRC2 inhibition on cell growth, cells were seeded in 96-well cell culture plates at a density of 2 000-3 000 cells/well in 200 µL of culture medium, and treated with serially diluted compounds for 7 days at 37° C. in an atmosphere of 5% CO2. Cell growth was evaluated by a […] WST-8 assay (Dojindo Molecular Technologies) using a Tecan Infinite M1000 multimode microplate reader (Tecan, Morrisville, NC). The WST-8 reagent was added to the plate, incubated for 1-4 h, and read at 450 nm. The readings were normalized to the DMSO-treated cells, and the IC50 was calculated by nonlinear regression analysis using GraphPad Prism 6 software

| Structure (SMILES) | IC50 [1] [nM] | IC50 [2] [nM] |
| --- | --- | --- |
| CCc1ccc2c(n1)CN(CC(F)F)C(=O)c1ncn3c(NCc4c(F)ccc5c4CCO5)ncc-2c13 [E 13, 4-(2,2-difluoroethyl)-7-ethyl-12-(((5-fluoro-2,3-dihydrobenzofuran-4-yl)methyl)amino)-4,5-dihydro-3H-2,4,6,11,12a-pentaazabenzo[4,5]cycloocta[1,2,3-cd]inden-3-one] | < 10 | < 10 |
| O=C1c2ncn3c(NCc4c(F)ccc5c4CCO5)ncc(c23)-c2ccc(C3CC3)nc2CN1CC(F)(F)F [E 14, 7-cyclopropyl-12-(((5-fluoro-2,3-dihydrobenzofuran-4-yl)methyl)amino)-4-(2,2,2-trifluoroethyl)-4,5-dihydro-3H-2,4,6,11,12a-pentaazabenzo[4,5]cycloocta[1,2,3-cd]inden-3-one] | < 10 | < 10 |
| CC(C)c1ccc2c(n1)CN(CC(F)(F)F)C(=O)c1ncn3c(NCc4c(F)ccc5c4CCO5)ncc-2c13 [E 15, 12-(((5-fluoro-2,3-dihydrobenzofuran-4-yl)methyl)amino)-7-isopropyl-4-(2,2,2-trifluoroethyl)-4,5-dihydro-3H-2,4,6,11,12a-pentaazabenzo[4,5]cycloocta[1,2,3-cd]inden-3-one] | < 10 | < 10 |
| CCc1ccc2c(n1)CN(CC(C)(F)F)C(=O)c1ncn3c(NCc4c(F)ccc5c4CCO5)ncc-2c13 [E 16, 4-(2,2-difluoropropyl)-7-ethyl-12-(((5-fluoro-2,3-dihydrobenzofuran-4-yl)methyl)amino)-4,5-dihydro-3H-2,4,6,11,12a-pentaazabenzo[4,5]cycloocta[1,2,3-cd]inden-3-one] | < 10 | < 10 |
| Cc1cnc2n1Cc1ncccc1-c1cnc(NCc3c(F)ccc4c3CCO4)n3cnc-2c13 [E 17, N-((5-fluoro-2,3-dihydrobenzofuran-4-yl)methyl)-5-methyl-6H-2,3,5a,7,12,13a-hexaazabenzo[4,5]cyclopenta[7,8]cycloocta[1,2,3-cd]inden-13-amine] | 10 to 100 | 10 to 100 |
| Cc1ccc2c(n1)Cn1c(C)cnc1-c1ncn3c(NCc4c(F)ccc5c4CCO5)ncc-2c13 [E 18, N-((5-fluoro-2,3-dihydrobenzofuran-4-yl)methyl)-5,8-dimethyl-6H-2,3,5a,7,12,13a-hexaazabenzo[4,5]cyclopenta[7,8]cycloocta[1,2,3-cd]inden-13-amine] | 10 to 100 | < 10 |
| [2H]C([2H])(Nc1ncc2c3c(ncn13)C(=O)N(CC(F)(F)F)Cc1cc(C(=O)N(C)C)ccc1-2)c1c(F)ccc2c1CCO2 [E 24, 12-(((5-fluoro-2,3-dihydrobenzofuran-4-yl)methyl-d2)amino)-N,N-dimethyl-3-oxo-4-(2,2,2-trifluoroethyl)-4,5-dihydro-3H-2,4,11,12a-tetraazabenzo[4,5]cycloocta[1,2,3-cd]indene-7-carboxamide] | 10 to 100 | 10 to 100 |
| O=C1NCCc2ccccc2-c2cnc(NCc3c(F)ccc4c3CCO4)n3cnc1c23 [E 28, 13-(((5-fluoro-2,3-dihydrobenzofuran-4-yl)methyl)amino)-5,6-dihydro-2,4,12,13a-tetraazabenzo[4,5]cyclonona[1,2,3-cd]inden-3(4H)-one] | > 100 | 10 to 100 |
| Cc1ccc2c(n1)CCNC(=O)c1ncn3c(NCc4c(F)ccc5c4CCO5)ncc-2c13 [E 29, 13-(((5-fluoro-2,3-dihydrobenzofuran-4-yl)methyl)amino)-8-methyl-5,6-dihydro-2,4,7,12,13a-pentaazabenzo[4,5]cyclonona[1,2,3-cd]inden-3(4H)-one] | 10 to 100 | 10 to 100 |
| Cc1ccc2c(n1)CCN(CC(F)(F)F)C(=O)c1ncn3c(NCc4c(F)ccc5c4CCO5)ncc-2c13 [E 30, 13-(((5-fluoro-2,3-dihydrobenzofuran-4-yl)methyl)amino)-8-methyl-4-(2,2,2-trifluoroethyl)-5,6-dihydro-2,4,7,12,13a-pentaazabenzo[4,5]cyclonona[1,2,3-cd]inden-3(4H)-one] | 10 to 100 | 10 to 100 |
| CC(C)N1CCc2cc(C(F)(F)F)ncc2-c2cnc(NCc3c(F)ccc4c3CCO4)n3cnc(c23)C1=O [E 31, 13-(((5-fluoro-2,3-dihydrobenzofuran-4-yl)methyl)amino)-4-isopropyl-8-(trifluoromethyl)-5,6-dihydro-2,4,9,12,13a-pentaazabenzo[4,5]cyclonona[1,2,3-cd]inden-3(4H)-one] | 10 to 100 | 10 to 100 |
| Fc1ccc2c(c1CNc1ncc3c4c(ncn14)-c1nccn1Cc1nc(C(F)(F)F)ccc1-3)CCO2 [E 32, N-((5-fluoro-2,3-dihydrobenzofuran-4-yl)methyl)-8-(trifluoromethyl)-6H-2,3,5a,7,12,13a-hexaazabenzo[4,5]cyclopenta[7,8]cycloocta[1,2,3-cd]inden-13-amine] | 10 to 100 | < 10 |
| Fc1ccc2c(c1CNc1ncc3c4c(ncn14)-c1nccn1Cc1cc(C(F)(F)F)ncc1-3)CCO2 [E 33, N-((5-fluoro-2,3-dihydrobenzofuran-4-yl)methyl)-8-(trifluoromethyl)-6H-2,3,5a,9,12,13a-hexaazabenzo[4,5]cyclopenta[7,8]cycloocta[1,2,3-cd]inden-13-amine] | 10 to 100 | 10 to 100 |
| Cc1ccc2c(n1)Cn1ccnc1-c1ncn3c(NCc4c(F)ccc5c4CCO5)ncc-2c13 [E 34, N-((5-fluoro-2,3-dihydrobenzofuran-4-yl)methyl)-8-methyl-6H-2,3,5a,7,12,13a-hexaazabenzo[4,5]cyclopenta[7,8]cycloocta[1,2,3-cd]inden-13-amine] | 10 to 100 | < 10 |
| Cc1onc2c1Cc1cc(C(F)(F)F)ncc1-c1cnc(NCc3c(F)ccc4c3CCO4)n3cnc-2c13 [E 35, N-((5-fluoro-2,3-dihydrobenzofuran-4-yl)methyl)-5-methyl-8-(trifluoromethyl)-6H-4-oxa-2,3,9,12,13a-pentaazabenzo[4,5]cyclopenta[7,8]cycloocta [1,2,3-cd]inden-13-amine] | 10 to 100 | 10 to 100 |
| Cc1ccc2c(n1)Cc1conc1-c1ncn3c(NCc4c(F)ccc5c4CCO5)ncc-2c13 [E 36, N-((5-fluoro-2,3-dihydrobenzofuran-4-yl)methyl)-8-methyl-6H-4-oxa-2,3,7,12,13a-pentaazabenzo[4,5]cyclopenta[7,8]cycloocta [1,2,3-cd]inden-13-amine] | 10 to 100 | 10 to 100 |
| CCc1cnc2n1Cc1cc(C(F)(F)F)ncc1-c1cnc(NCc3c(F)ccc4c3CCO4)n3cnc-2c13 [E 37, 5-ethyl-N-((5-fluoro-2,3-dihydrobenzofuran-4-yl)methyl)-8-(trifluoromethyl)-6H-2,3,5a,9,12,13a-hexaazabenzo[4,5]cyclopenta[7,8]cycloocta[1,2,3-cd]inden-13-amine] | 10 to 100 | 10 to 100 |
| CCc1cnc2n1Cc1nc(C)ccc1-c1cnc(NCc3c(F)ccc4c3CCO4)n3cnc-2c13 [E 38, 5-ethyl-N-((5-fluoro-2,3-dihydrobenzofuran-4-yl)methyl)-8-methyl-6H-2,3,5a,7,12,13a-hexaazabenzo[4,5]cyclopenta[7,8]cycloocta[1,2,3-cd]inden-13-amine] | 10 to 100 | 10 to 100 |
| Cc1ccc2c(n1)CN(CC(F)(F)F)C(=O)c1ncn3c(NCc4c(F)ccc5c4CCCO5)ncc-2c13 [E 39, 12-(((6-fluorochroman-5-yl)methyl)amino)-7-methyl-4-(2,2,2-trifluoroethyl)-4,5-dihydro-3H-2,4,6,11,12a-pentaazabenzo[4,5]cycloocta[1,2,3-cd]inden-3-one] | 10 to 100 | < 10 |
| O=C1c2ncn3c(NCc4c(F)ccc5c4CCO5)ncc(c23)-c2ccc(C3CCOCC3)nc2CN1CC(F)(F)F [E 45, 12-(((5-fluoro-2,3-dihydrobenzofuran-4-yl)methyl)amino)-7-(tetrahydro-2H-pyran-4-yl)-4-(2,2,2-trifluoroethyl)-4,5-dihydro-3H-2,4,6,11,12a-pentaazabenzo[4,5]cycloocta[1,2,3-cd]inden-3-one] | < 10 | < 10 |
| CC(C)(C)c1cc2c(cn1)-c1cnc(NCc3c(F)ccc4c3CCO4)n3cnc(c13)C(=O)N(CC(F)(F)F)C2 [E 46, 7-(tert-butyl)-12-(((5-fluoro-2,3-dihydrobenzofuran-4-yl)methyl)amino)-4-(2,2,2-trifluoroethyl)-4,5-dihydro-3H-2,4,8,11,12a-pentaazabenzo[4,5]cycloocta[1,2,3-cd]inden-3-one] | < 10 | < 10 |
| CC(C)c1ccc2c(n1)CN(CC(F)F)C(=O)c1ncn3c(NCc4c(F)ccc5c4CCO5)ncc-2c13 [E 47, 4-(2,2-difluoroethyl)-12-(((5-fluoro-2,3-dihydrobenzofuran-4-yl)methyl)amino)-7-isopropyl-4,5-dihydro-3H-2,4,6,11,12a-pentaazabenzo[4,5]cycloocta[1,2,3-cd]inden-3-one] | < 10 | < 10 |
| O=C1c2ncn3c(NCc4c(F)ccc5c4CCO5)ncc(c23)-c2ccc(C3COCCO3)nc2CN1CC(F)(F)F (stereo not shown) [E 48, 7-(1,4-dioxan-2-yl)-12-(((5-fluoro-2,3-dihydrobenzofuran-4-yl)methyl)amino)-4-(2,2,2-trifluoroethyl)-4,5-dihydro-3H-2,4,6,11,12a-pentaazabenzo[4,5]cycloocta[1,2,3-cd]inden-3-one] | < 10 | < 10 |
